Assay results taken from ChEMBL document CHEMBL2073960, “Cytotoxic and multidrug resistance reversal activity of a vegetable, 'Anastasia Red', a variety of sweet pepper” (Phytother Res, 2003).

Molecular target: ATP-dependent translocase ABCB1 (Homo sapiens, UniProt P08183)
Assay: TP_TRANSPORTER: increase in Rhodamine 123 intracellular accumulation in MDR1 transfected L-5178 mouse T-cell lymphoma cells
Assay type: functional, cell-based

ATP-dependent translocase ABCB1, sequence (P08183 whole entry): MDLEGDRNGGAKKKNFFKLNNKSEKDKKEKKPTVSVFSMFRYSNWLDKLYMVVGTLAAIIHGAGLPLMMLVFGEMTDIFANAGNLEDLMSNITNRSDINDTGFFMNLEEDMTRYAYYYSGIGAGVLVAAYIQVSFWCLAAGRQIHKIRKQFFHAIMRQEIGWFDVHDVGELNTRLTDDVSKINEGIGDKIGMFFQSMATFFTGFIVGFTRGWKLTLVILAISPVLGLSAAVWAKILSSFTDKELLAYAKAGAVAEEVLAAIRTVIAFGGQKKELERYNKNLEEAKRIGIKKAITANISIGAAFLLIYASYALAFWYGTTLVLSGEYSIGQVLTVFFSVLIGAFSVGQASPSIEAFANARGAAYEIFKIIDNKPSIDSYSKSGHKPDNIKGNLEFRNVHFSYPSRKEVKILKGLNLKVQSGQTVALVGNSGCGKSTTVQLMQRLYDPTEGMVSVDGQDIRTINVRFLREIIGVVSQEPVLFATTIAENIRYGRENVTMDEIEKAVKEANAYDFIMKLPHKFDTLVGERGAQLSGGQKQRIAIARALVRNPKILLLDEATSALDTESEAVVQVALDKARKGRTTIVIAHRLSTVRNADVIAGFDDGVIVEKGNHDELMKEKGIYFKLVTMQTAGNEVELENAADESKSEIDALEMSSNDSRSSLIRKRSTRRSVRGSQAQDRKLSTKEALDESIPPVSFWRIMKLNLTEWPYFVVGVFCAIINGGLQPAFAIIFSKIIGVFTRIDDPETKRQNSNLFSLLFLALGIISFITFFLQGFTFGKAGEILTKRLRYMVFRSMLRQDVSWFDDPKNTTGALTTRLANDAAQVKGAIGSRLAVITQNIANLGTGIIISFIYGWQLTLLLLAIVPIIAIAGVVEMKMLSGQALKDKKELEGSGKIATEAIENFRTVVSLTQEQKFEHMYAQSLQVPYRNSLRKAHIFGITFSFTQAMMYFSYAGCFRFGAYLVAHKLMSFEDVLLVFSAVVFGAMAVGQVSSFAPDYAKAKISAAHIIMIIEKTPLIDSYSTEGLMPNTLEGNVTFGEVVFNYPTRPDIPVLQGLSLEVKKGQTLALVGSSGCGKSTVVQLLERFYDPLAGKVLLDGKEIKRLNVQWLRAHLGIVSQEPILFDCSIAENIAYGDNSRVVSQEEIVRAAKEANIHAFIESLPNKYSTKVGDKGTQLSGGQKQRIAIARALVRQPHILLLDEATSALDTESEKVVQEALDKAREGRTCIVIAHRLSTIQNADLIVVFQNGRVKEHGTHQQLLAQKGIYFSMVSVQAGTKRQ

Activity: inhibitor [+]
Sequence: ANASTASIA RED EXTRACTS
